# Assay results from patent US11339130B1 (Blade Therapeutics, Inc., priority 2016, dated 2022).
# Like-named read-outs stand apart in the source and are kept apart here.
# Experiments:
# Human Calpain 9/NS1 = target: T1, Human Calpain 9/NS1 (Homo sapiens, UniProt O14815); assay: Calpain inhibition continuous fluorescence (FRET) assay, Human Calpain 9/NS1; format: biochemical; conditions: read-out: Human Calpain 9/NS1 IC50
# T1 sequence (O14815 1-690): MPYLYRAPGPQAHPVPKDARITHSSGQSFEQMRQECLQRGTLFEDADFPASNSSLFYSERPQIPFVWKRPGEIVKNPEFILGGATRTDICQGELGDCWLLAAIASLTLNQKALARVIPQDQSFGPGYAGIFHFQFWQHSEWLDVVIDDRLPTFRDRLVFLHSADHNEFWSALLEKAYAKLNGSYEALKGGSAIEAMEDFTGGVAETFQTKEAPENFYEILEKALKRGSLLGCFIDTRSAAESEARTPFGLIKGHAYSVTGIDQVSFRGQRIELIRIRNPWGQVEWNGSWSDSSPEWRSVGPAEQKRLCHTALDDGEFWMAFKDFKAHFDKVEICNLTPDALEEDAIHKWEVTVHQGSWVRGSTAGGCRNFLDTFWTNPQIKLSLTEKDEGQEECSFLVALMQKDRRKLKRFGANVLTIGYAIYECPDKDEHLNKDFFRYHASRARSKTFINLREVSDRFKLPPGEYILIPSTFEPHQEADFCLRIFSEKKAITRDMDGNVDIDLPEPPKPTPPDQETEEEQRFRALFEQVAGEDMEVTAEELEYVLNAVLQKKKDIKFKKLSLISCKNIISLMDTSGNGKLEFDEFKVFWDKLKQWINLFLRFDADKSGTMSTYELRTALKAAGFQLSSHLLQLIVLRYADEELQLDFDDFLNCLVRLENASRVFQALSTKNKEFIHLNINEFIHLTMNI
# T1 sequence (P04632 1-268 partner): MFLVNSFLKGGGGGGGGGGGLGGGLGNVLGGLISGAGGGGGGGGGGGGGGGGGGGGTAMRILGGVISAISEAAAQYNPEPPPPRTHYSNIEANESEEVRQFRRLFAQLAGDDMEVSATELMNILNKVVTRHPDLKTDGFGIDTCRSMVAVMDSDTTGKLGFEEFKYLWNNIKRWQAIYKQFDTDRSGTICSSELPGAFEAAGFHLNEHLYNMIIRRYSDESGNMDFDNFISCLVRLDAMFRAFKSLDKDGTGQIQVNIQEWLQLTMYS
# Procedure, shortened: (§1)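 Human calpains 1, 2 and 9 preincubated with inhibitor at 25 °C in 50 mM Tris pH 7.5, 100 mM NaCl, 1 mM DTT; reaction started with 5-FAM/QXL 520 FRET peptide plus CaCl2 for activation. Fluorescence (490/520 nm) followed 10 min; rates from 1-5 min slopes fitted to 4-parameter logistic for IC50.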
# [1] = test system: Calpain activity in SH-SY5Y cells; assay: SH-SY5Y + AMC fluorescence assay (Suc-LLVY-AMC substrate); format: cell-based; conditions: read-out: SH-SY5Y + AMC IC50
# Human Calpain 1/NS1 = target: T2, Human Calpain 1/NS1 (Homo sapiens, UniProt P07384); assay: Calpain inhibition continuous fluorescence (FRET) assay, Human Calpain 1/NS1; format: biochemical; conditions: read-out: Human Calpain 1/NS1 IC50
# T2 sequence (P07384 1-714): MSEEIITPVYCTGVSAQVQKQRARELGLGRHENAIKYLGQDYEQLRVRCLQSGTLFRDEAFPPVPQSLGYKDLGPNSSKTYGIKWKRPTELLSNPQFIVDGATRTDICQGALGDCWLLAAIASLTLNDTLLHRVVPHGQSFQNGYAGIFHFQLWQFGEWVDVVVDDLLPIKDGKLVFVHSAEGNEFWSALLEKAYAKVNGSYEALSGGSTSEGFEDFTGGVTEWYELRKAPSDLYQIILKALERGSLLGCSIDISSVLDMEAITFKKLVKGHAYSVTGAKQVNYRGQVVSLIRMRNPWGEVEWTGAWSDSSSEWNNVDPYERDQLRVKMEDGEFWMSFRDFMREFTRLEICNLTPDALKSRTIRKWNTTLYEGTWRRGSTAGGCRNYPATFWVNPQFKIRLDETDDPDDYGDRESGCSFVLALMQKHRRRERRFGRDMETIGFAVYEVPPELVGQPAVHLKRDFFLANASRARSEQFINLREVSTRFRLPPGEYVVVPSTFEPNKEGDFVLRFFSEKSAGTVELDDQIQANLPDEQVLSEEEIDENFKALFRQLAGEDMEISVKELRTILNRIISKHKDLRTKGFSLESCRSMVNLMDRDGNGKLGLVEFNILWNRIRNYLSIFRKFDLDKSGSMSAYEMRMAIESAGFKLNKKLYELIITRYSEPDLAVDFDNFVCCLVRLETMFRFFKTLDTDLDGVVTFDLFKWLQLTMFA
# T2 sequence (P04632 1-268 partner): T1 sequence (P04632 1-268 partner)
# Procedure, shortened: as §1
# Human Calpain 2/NS1 = target: T3, Human Calpain 2/NS1 (Homo sapiens, UniProt P17655); assay: Calpain inhibition continuous fluorescence (FRET) assay, Human Calpain 2/NS1; format: biochemical; conditions: read-out: Human Calpain 2/NS1 IC50
# T3 sequence (P17655 1-700): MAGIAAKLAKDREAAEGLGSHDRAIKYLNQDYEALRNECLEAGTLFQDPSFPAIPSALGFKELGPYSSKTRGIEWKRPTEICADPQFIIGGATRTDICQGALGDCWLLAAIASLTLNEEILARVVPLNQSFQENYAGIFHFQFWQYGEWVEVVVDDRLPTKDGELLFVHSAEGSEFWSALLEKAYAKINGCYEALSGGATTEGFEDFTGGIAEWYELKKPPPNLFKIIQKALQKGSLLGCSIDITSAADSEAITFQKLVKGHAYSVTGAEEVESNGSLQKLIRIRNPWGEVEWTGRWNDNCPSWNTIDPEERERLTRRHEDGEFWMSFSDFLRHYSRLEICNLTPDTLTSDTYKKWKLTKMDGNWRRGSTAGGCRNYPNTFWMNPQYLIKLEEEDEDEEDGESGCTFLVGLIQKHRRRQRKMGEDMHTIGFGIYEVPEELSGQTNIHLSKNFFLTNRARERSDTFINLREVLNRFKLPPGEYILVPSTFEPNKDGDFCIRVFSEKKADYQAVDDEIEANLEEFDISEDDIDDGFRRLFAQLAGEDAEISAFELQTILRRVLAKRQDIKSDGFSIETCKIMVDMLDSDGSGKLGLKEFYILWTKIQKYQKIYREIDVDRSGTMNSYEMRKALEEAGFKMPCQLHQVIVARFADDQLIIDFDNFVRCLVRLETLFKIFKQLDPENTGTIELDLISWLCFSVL
# T3 sequence (P04632 1-268 partner): T1 sequence (P04632 1-268 partner)
# Procedure, shortened: as §1
IC50 (Human Calpain 9/NS1; Column C) [µM],IC50 ([1]; Column E) [µM],IC50 (Human Calpain 1/NS1; Column A) [µM],IC50 (Human Calpain 2/NS1; Column B) [µM],IC50 (Human Calpain 9/NS1) [µM],IC50 [1] [µM],IC50 (Human Calpain 1/NS1) [µM],IC50 (Human Calpain 2/NS1) [µM],SMILES
< 3,> 25,< 3,< 3,,,,,"Cn1cc(C(=O)N[C@@H](Cc2ccccc2)C(=O)C(N)=O)c(-c2ccccc2)n1 [Compound 32, (S)—N-(4-amino-3,4-dioxo-1-phenylbutan-2-yl)-1-methyl-3-phenyl-1H-pyrazole-4-carboxamide]"
< 3,> 25,< 3,< 3,,,,,"NC(=O)C(=O)[C@H](Cc1ccccc1)NC(=O)c1snnc1-c1ccccc1 [Compound 44, (S)—N-(4-amino-3,4-dioxo-1-phenylbutan-2-yl)-4-phenyl-1,2,3-thiadiazole-5-carboxamide]"
< 3,< 10,< 3,< 3,,,,,"NC(=O)C(=O)[C@H](Cc1ccccc1)NC(=O)c1cnoc1-c1ccccc1 [Compound 60, (S)—N-(4-amino-3,4-dioxo-1-phenylbutan-2-yl)-5-phenylisoxazole-4-carboxamide]"
< 3,< 10,< 3,< 3,,,,,"NC(=O)C(=O)[C@H](Cc1ccccc1)NC(=O)c1nsnc1-c1ccccc1 [Compound 72, (S)—N-(4-amino-3,4-dioxo-1-phenylbutan-2-yl)-4-phenyl-1,2,5-thiadiazole-3-carboxamide]"
< 3,10 to 25,< 3,< 3,,,,,"NC(=O)C(=O)[C@H](Cc1ccccc1)NC(=O)c1cn(C2CC2)nc1-c1ccccc1 [Compound 250, (S)—N-(4-amino-3,4-dioxo-1-phenylbutan-2-yl)-1-cyclopropyl-3-phenyl-1H-pyrazole-4-carboxamide]"
< 3,> 25,< 3,< 3,,,,,"CCCC[C@H](NC(=O)c1oc(C)nc1-c1ccccc1)C(=O)C(N)=O [Compound 265, (S)—N-(1-amino-1,2-dioxoheptan-3-yl)-2-methyl-4-phenyloxazole-5-carboxamide]"
,,,,< 3,< 10,< 3,< 3,"Cc1nc(-c2ccccc2)c(C(=O)NC(Cc2ccccc2)C(=O)C(N)=O)o1 (stereo not shown) [Compound 357, N-(4-amino-3,4-dioxo-1-phenylbutan-2-yl)-2-methyl-4-phenyloxazole-5-carboxamide]"
,,,,< 3,< 10,< 3,< 3,"NC(=O)C(=O)C(Cc1ccccc1)NC(=O)c1cn(C(F)F)nc1-c1ccccc1 (stereo not shown) [Compound 403, N-(4-amino-3,4-dioxo-1-phenylbutan-2-yl)-1-(difluoromethyl)-3-phenyl-1H-pyrazole-4-carboxamide]"
,,,,< 3,< 10,< 3,< 3,"Cc1nc(-c2cccc(F)c2)c(C(=O)NC(Cc2ccccc2)C(=O)C(N)=O)o1 (stereo not shown) [Compound 404, N-(4-amino-3,4-dioxo-1-phenylbutan-2-yl)-4-(3-fluorophenyl)-2-methyloxazole-5-carboxamide]"
,,,,< 3,,< 3,< 3,"Cc1nc(-c2ccccc2F)c(C(=O)NC(Cc2ccccc2)C(=O)C(N)=O)o1 (stereo not shown) [Compound 405, N-(4-amino-3,4-dioxo-1-phenylbutan-2-yl)-4-(2-fluorophenyl)-2-methyloxazole-5-carboxamide]"
,,,,< 3,< 10,< 3,< 3,"NC(=O)C(=O)C(Cc1ccccc1)NC(=O)c1cn(C2CC2)nc1-c1ccccc1 (stereo not shown) [Compound 406, N-(4-amino-3,4-dioxo-1-phenylbutan-2-yl)-1-cyclopropyl-3-phenyl-1H-pyrazole-4-carboxamide]"
,,,,< 3,< 10,< 3,< 3,"Cn1cc(C(=O)NC(Cc2ccccc2)C(=O)C(N)=O)c(-c2ccccc2F)n1 (stereo not shown) [Compound 484, N-(4-amino-3,4-dioxo-1-phenylbutan-2-yl)-3-(2-fluorophenyl)-1-methyl-1H-pyrazole-4-carboxamide]"
,,,,< 3,10 to 25,< 3,< 3,"Cl.Cn1cc(C(=O)NC(Cc2ccccc2)C(=O)C(N)=O)c(-c2cccc(F)c2)n1 (stereo not shown) [Compound 485, N-(4-amino-3,4-dioxo-1-phenylbutan-2-yl)-3-(3-fluorophenyl)-1-methyl-1H-pyrazole-4-carboxamide hydrochloride]"
,,,,< 3,< 10,< 3,< 3,"Cc1cc(C(=O)NC(Cc2ccccc2)C(=O)C(N)=O)n(-c2ccccn2)n1 (stereo not shown) [Compound 495, N-(4-amino-3,4-dioxo-1-phenylbutan-2-yl)-3-methyl-1-(pyridin-2-yl)-1H-pyrazole-5-carboxamide]"
